# US7173021B2, “Synthesis of temozolomide esters as potent anticancer pro-drugs for topical and transdermal applications in treatments of cancers” (Tianjin North Pharm Sci-Tech Co., Ltd., priority 2004, dated 2007)
# “Also recorded” adds a separate entry of the source.
# How the values were obtained:
# [1] = In vitro permeation and metabolism, Franz diffusion cell, human skin; assay type: in vitro ADME
# Text: (§1) Jacketed Franz-type diffusion cells were used throughout the study and the barrier (12) (skin or silicone membrane) was mounted between the two chambers (14, 16) (2.8–3.4 cm^2 available surface area) with the dermal side in contact with the receiver solution (FIG. 2). The diffusion chambers (10) comprised a barrier of skin or silicone membrane (12) mounted between two chambers (14, 16). A cap (18) formed the donor compartment (14). The second receptor compartment (16) contained a receptor cell (20) with a stirring bar (22), sampling port (24) and cover (26). The stirring bar (22) was stirred by means of a magnet plate (28) having a rotating magnet. The receptor compartment comprised a water jacket (30) having a water inlet (32) and a water outlet (34).
# (§2) Three types of materials were used in permeation studies. • 1. Silicone membrane (Silastic Medical Grade, 500-5, Dow Corning 0.005 in thick) was cut into circular sections (2 cm diameter) and washed with double distilled water prior to use. • 2. Full-thickness rat skin was obtained from Male Wistar rats aged 10 to 12 weeks and weighing 250 to 300 g, which were sacrificed by cervical dislocation, the abdomen shaved and the intact skin removed by dissection. Following removal of fat tissue, the skin was cut into circular pieces and used immediately. • 3. Samples of adult human epidermis were purchased from the Stephen Kirby Skin Bank (UK). The samples were from the leg, were stored at −18° C. and used within one week. Experiments
# The membrane (as detailed above) was mounted on the diffusion cell (10), on which the surface area available for diffusion of each cell was about 2.8–3.4 cm^2. The cell cap (18) was placed on the membrane (12), and it was sealed with Parafilm® connecting the cell cap, membrane, and receptor cell. […] The concentration of each sample solution was determined by using HPLC. […]
# As stated above, after the removal of receptor solution, the receiver compartment was refilled with an identical volume of receptor fluid. […] As a consequence, it was necessary to mathematically correct each successive sample concentrations, in the present invention, which was determined by applying the following equation:
# (§3) [formula] where Ct is the actual current concentration of drug in the receptor phase at time t, Cmt is the apparent (i.e. measured) current concentration of drug in the receptor phase, Vs is the sample volume withdrawn for analysis, Vr is the volume of receptor solution, and ΣCm is the summed total of the previous measured concentrations.
# (§4) Finally, the amount of drug penetrating the skin per unit area was calculated by dividing the obtained concentrations by the surface area available for diffusion cell and this value was different for each individual cell. […]
# [2] = Solubility in 10% v/v propylene glycol; assay type: physicochemical; settings: 10% v/v propylene glycol aqueous solution, aqueous with cosolvent or surfactant or cyclodextrin, thermodynamic from solid, ambient conditions, stirred 5 hours, read-out: Solubility, Concentration
# Method: The potential of temozolomide esters used as topical and transdermal prodrugs is first proven through studies of their solubility. That is a decreased trend of solubility in an aqueous solution with increase of the length of the ester hydrocarbon alkyl chain of the temozolomide esters. It is clear the solubility constantly decreases from the methyl ester to the octyl ester, while temozolomide itself is 3.0 mg/ml similar to that of the methyl ester. […] Similarly to the esters, the solubility of the temozolomide amide products in the aqueous solution is considerably lower than that of temozolomide.
# The solubility of temozolomide and the temozolomide esters was determined in 10% v/v propylene glycol by stirring an excess of the solid products at room temperature for 5 hours. The mixtures were then filtered, diluted with sample solvent and analysed using HPLC.
# pig liver esterase = assay: Enzymatic metabolizing study with pig liver esterase (1H NMR); assay type: in vitro ADME; settings: 37° C., pH 7.4 buffer; ester complete at 10 minutes; amide followed up to 8 hours
# Method: First the present invention establishes the metabolised process of the temozolomide esters by pig liver esterase in vitro. ^1H NMR spectra 1 (FIG. 1) records the degradation profile of the temozolomide methyl ester under incubation condition (Rathbone D L, 1999). […] Finally, at 10 minutes, the intensity of the singlet at 3.58 ppm grows to the grade similar to the original of the two singlets at 3.63 and 3.65 ppm, which while are completely eliminated. […] This discovery establishes the solid foundation for the temozolomide esters to be considered as the potential anticancer pro-drugs.
# Enzymatic metabolizing studies of the temozolomide methyl ester was carried out using pig liver esterase enzyme from Sigma [a suspension in 3.2 M ammonium sulphate solution pH 8; 200 unit/mg protein (14 mg protein/ml)]. • A. To a NMR tube 2 mg of the temozolomide methyl ester was added, followed by 0.2 ml of d6-DMSO, 0.5 ml D2O of pH 7.4 sulphate buffer and finally 50 μl of the enzyme solution. Record a ^1H NMR spectrum immediately, then the mixture was incubated at 37° C. and record a ^1H NMR spectrum at each 5 minutes time interval. […] The samples were dissolved in d6-DMSO in an NMR tube, 50 μl of enzyme solution was added and the solution incubated at 37° C.
# TJ899 (human glioma) = assay: In vitro tumour cell growth inhibition (MTT), TJ899; assay type: cell-based; settings: Homo sapiens, Table 2 experiment, 96 h
# Method: (§5) Temozolomide (white powder), temozolomide acid (white powder) and temozolomide-8-carboxylate hexyl (white scale crystal) were made in house. For the estimation of in vitro tumour cell growth inhibition, MV3 (human melanoma), M14 (human melanoma), B16 and B16-BL6 (mouse melanoma), SHG-44, TJ899 and TJ905 (human glioma), MCF-7 (human breast), HCT-8 (human colon), A549 (human non small lung), Bel7402 (human hepatocellulor), and BGC-823 (human stomach) were used. All tumour cells were cultured in RPMI-1640 medium supplemented with 10% fetal bovine serum (FBS) at 37° C. in a humidified 5% CO2 incubator.
# (§6) After being harvested from culture flasks, a cell suspension of 1×10^4/ml was made by using 1640 RPMI medium supplemented with 10% fetal bovine serum. 100 μl (contains 1000 tumour cells) of the cell suspension was seeded per well of 96-well flat-bottom Costar culture plates at 37° C. in a humidified 5% CO2 incubator for 24 hrs before introducing drugs. Each tested compounds was made for five different concentrations and 100 μl of the each concentration was introduced into parallel three wells; control wells were added with 100 μl of plain medium alone; fluorouracil (a chemotherapeutic antitumour drug) was used as the positive control. Cells were then incubated for 96 h. Proliferative response and cell death were determined using MTT (3-(4,5-dimethylthiazolyl)-2,5-diphenyl-tetrazolium bromide) assay.
# (§7) MTT assay: Following incubation of cells with the tested compounds for 96 h, 100 μl of 0.4 mg/ml MTT in RPMI 1640 was added to each well and the plate was incubated at 37° C. for 4 h. The plate was then centrifuged and followed by removal of medium. 150 μl of DMSO was then added to dissolve formazan crystal. DMSO-added plates were placed on a plate shaker for 5 min and absorbance was measured spectrophotometrically at 540 nm (with reference wavelength at 450 nm) using a Benchmark microtiter plate reader (Bio-Rad 550, Bio-Rad Laboratories, CA, U.S.A.).
# (§8) The IC50 was calculated from the curve of the tested compound concentrations against the inhibition rate of the tumour cells. Table 1 summarized the experiment results by using six human cancer cell lines, HCT-8 (colon carcinoma), A549 (non small lung carcinoma), MCF-7 (breast), Bel7402 (hepatocellulor carcinoma), BGC-823 (stomach adenocarcinoma), and MV3 (melanoma). Table 2 summarized the results from the experiment results by using two human melanoma cell lines, MV3 and M14, two mouse melanoma cell lines, B16 and B16-BL6, and three human glioma cell lines, TJ899, SHG-44 and TJ905.
# TJ905 (human glioma) = assay: In vitro tumour cell growth inhibition (MTT), TJ905; assay type: cell-based; settings: Homo sapiens, Table 2 experiment, 96 h
# Method: as §5, §6, §7, §8
# M14 (human melanoma) = assay: In vitro tumour cell growth inhibition (MTT), M14; assay type: cell-based; settings: Homo sapiens, Table 2 experiment, 96 h
# Method: as §5, §6, §7, §8
# [3] = Measured log P, octanol/water; assay type: physicochemical; settings: octanol/water system; read-out: measured Log P (mLog P)
# Method: Log P values of temozolomide (1) and the temozolomide esters were calculated using TSAR (Oxford Molecular, Oxford, UK), Molecular Modeling Pro (ChemSW, Fairfield, Calif.) and Chem Office 7.0 (CambridgeSoft, Cambridge, UK) programmes. Calculated Log P values were verified for temozolomide and the temozolomide hexyl ester by measuring the octanol/water coefficient (Table 4).
# SHG-44 (human glioma) = assay: In vitro tumour cell growth inhibition (MTT), SHG-44; assay type: cell-based; settings: Homo sapiens, SHG-44, Table 2 experiment, 96 h
# Method: as §5, §6, §7, §8
# B16 (mouse melanoma) = assay: In vitro tumour cell growth inhibition (MTT), B16; assay type: cell-based; settings: Mus musculus, Table 2 experiment, 96 h
# Method: as §5, §6, §7, §8
# B16-BL6 (mouse melanoma) = assay: In vitro tumour cell growth inhibition (MTT), B16-BL6; assay type: cell-based; settings: Mus musculus, B16-BL6, Table 2 experiment, 96 h
# Method: as §5, §6, §7, §8
# [4] = In vitro permeation, Franz diffusion cell, silicone membrane; assay type: in vitro ADME; settings: 37° C., 8 h, FIGS. 3-5
# Text: as §1, §2
# The membrane (as detailed above) was mounted on the diffusion cell (10), on which the surface area available for diffusion of each cell was about 2.8–3.4 cm^2. The cell cap (18) was placed on the membrane (12), and it was sealed with Parafilm® connecting the cell cap, membrane, and receptor cell. The capacity of each receptor cell was around 25–26 ml, which was filled with receptor solution and was completely in contact with the membrane sheet. During the course of experiment, the solution was continuously stirred by teflon-coated magnetic bar (22) placed in the cell (20). The temperature was maintained at 37° C. by a thermostatic water pump that circulated the water through the jacket (30) surrounding the cell body. The system was allowed to equilibrate under these conditions for half an hour. Finally, the prepared sample solution (2 ml) was added into the donor cap cell, and it was sealed with Parafilm® to minimize the evaporation of donor solution. 1 ml of receptor solution was removed every 30 minutes for 5 hours and then every 60 minutes for a further 3 hours. The volumes withdrawn were always replaced with equal volumes of fresh receptor solution to maintain constant volume. The concentration of each sample solution was determined by using HPLC.
# For every sample, six determinations were performed on human and rat skin, and three determinations were carried out through artificial silicone membrane.
# As stated above, after the removal of receptor solution, the receiver compartment was refilled with an identical volume of receptor fluid. This causes of the dilution of receptor solution leading to an under determination of the sample concentration. As a consequence, it was necessary to mathematically correct each successive sample concentrations, in the present invention, which was determined by applying the following equation:
# as §3, §4
# MV3 (human melanoma) = assay: In vitro tumour cell growth inhibition (MTT), MV3; assay type: cell-based; settings: Homo sapiens, 96 h
# Method: as §5, §6, §7, §8
# [5] = tested on: A549 (human non small lung); assay: In vitro tumour cell growth inhibition (MTT), A549; assay type: cell-based; settings: Table 1 experiment, 96 h
# Method: as §5, §6, §7
# (§9) The IC50 was calculated from the curve of the tested compound concentrations against the inhibition rate of the tumour cells. […]
# TLX5 lymphoma cell line = settings: Tsang 1990; cited from earlier work
# MCF-7 (human breast) = assay: In vitro tumour cell growth inhibition (MTT), MCF-7; assay type: cell-based; settings: MCF7, Table 1 experiment, 96 h
# Method: as §5, §6, §7, §9
# [6] = tested on: Bel7402 (human hepatocellulor); assay: In vitro tumour cell growth inhibition (MTT), Bel-7402; assay type: cell-based; settings: Table 1 experiment, 96 h
# Method: as §5, §6, §7, §9
# HCT-8 (human colon) = assay: In vitro tumour cell growth inhibition (MTT), HCT-8; assay type: cell-based; settings: Table 1 experiment, 96 h
# Method: as §5, §6, §7, §9
# BGC-823 (human stomach) = assay: In vitro tumour cell growth inhibition (MTT), BGC-823; assay type: cell-based; settings: Table 1 experiment, 96 h
# Method: as §5, §6, §7, §9
Compound,"Permeation through human skin ([1]; 37° C., FIG. 9)",Metabolism within human skin to temozolomide acid ([1]; human skin),solubility at 5 h [2] [µg/mL],Degradation to temozolomide acid by pig liver esterase (pig liver esterase),IC50 (TJ899 (human glioma)) [µg/mL],IC50 (TJ905 (human glioma)) [µg/mL],IC50 (M14 (human melanoma)) [µg/mL],logP [3],IC50 (SHG-44 (human glioma)) [µg/mL],IC50 (B16 (mouse melanoma)) [µg/mL],IC50 (B16-BL6 (mouse melanoma)) [µg/mL],Permeation through synthetic silicone membrane [4],IC50 (MV3 (human melanoma); Table 2 experiment (separate)) [µg/mL],IC50 [5] [µg/mL],in vitro IC50 compared with temozolomide (TLX5 lymphoma cell line),IC50 (MCF-7 (human breast)) [µg/mL],IC50 [6] [µg/mL],IC50 (HCT-8 (human colon)) [µg/mL],IC50 (BGC-823 (human stomach)) [µg/mL],IC50 (MV3 (human melanoma); Table 1 experiment) [µg/mL]
"CCCCNC(=O)c1ncn2c(=O)n(C)nnc12 [Temozolomide n-butyl amide, 3-Methyl-N-(n-butyl)-4-oxoimidazo[5,1-d]-1,2,3,5-tetrazine-8-carboxamide]",notably better than temozolomide,resistant to metabolism,1800,no the temozolomide acid was observed; also recorded: gradually decomposed into un-identifiable products without the observation of temozolomide acid,–,–,–,–,–,–,–,–,–,–,–,–,–,–,–,–
"Cn1nnc2c(C(N)=O)ncn2c1=O [Temozolomide, 8-Carbamoyl-3-methylimidazo[5,1-d]-1,2,3,5-tetrazine-4(3H)-one]",–,–,3000,–,> 100,> 100,> 100,-0.66,9.04,61.9,> 100,can not pass through the synthetic membrane easily; also recorded: lowest permeation,7.86,–,–,–,–,–,–,–
"Cn1nnc2c(C(=O)O)ncn2c1=O [temozolomide acid, 3,4-dihydro-3-methyl-4-oxoimidazo[5,1-d]-1,2,3,5-tetrazine-8-carboxylic acid]",–,–,–,–,> 100,> 100,99,–,7.07,36.2,43.5,–,36,> 19.5,almost identical to that of temozolomide,14.9,17,18.5,> 19.5,14.6
